Data reported in publication PMC8371902, “Phase 1 study of M2698, a p70S6K/AKT dual inhibitor, in patients with advanced cancer” (Journal of Hematology & Oncology, 2021).

Columns and labels:
[1] = Plasma pharmacokinetics of M2698, non-compartmental; format: in vivo, human
Experimental: Plasma PK parameters on days 1 and 15 were calculated using non-compartmental methods.

[2] = Food effect on M2698 pharmacokinetics (fed vs fasted, single 240 mg dose); format: in vivo, human
Experimental: Food effect was analyzed using an analysis of variance (performed on natural log-transformed values of area under the plasma concentration-time curve from time zero to infinity (AUC0-∞) and maximum plasma concentration (Cmax) including sequence, period, and fasting/fed condition as effect).
Two single doses of 240 mg M2698 were administered 7 days apart (fed then fasted states or vice versa) to assess any effect of food on pharmacokinetics; these patients then continued treatment with either 240 mg/day or 320 mg/day M2698 as part of the dose expansion cohort. (240 mg, n=7; 320 mg, n=5)
^*Fed vs fasting following single dose of 240 mg M2698. Main analysis performed on natural log-transformed values of AUC0-∞ and Cmax including sequence, period and fasting/fed condition as effect. For one of the eight evaluable patients, no AUC under fed conditions was determined.

[3] = system: phospho-S6 (pS6) in peripheral blood mononuclear cells; experiment: pS6 in PBMCs by flow cytometry, PK/PD Emax model
Experimental: Pharmacodynamic biomarker analysis consisted of measuring levels of phospho-S6 (pS6) by flow cytometry in peripheral blood mononuclear cells (PBMCs) collected on cycle 1, days 1 and 15 at predose, 2, 4, and 8 h, and at predose on cycles ≥ 2, days 1, 8 and 15; and by immunohistochemistry in tumor biopsies obtained at baseline and on treatment (cycle 2, day 1; from the same tumor when possible).

[4] = system: phospho-S6 (pS6) in tumor tissue; experiment: pS6 in tumor biopsies by immunohistochemistry, PK/PD models; format: in vivo, human
From the text: Supplementary Table S7. Parameter estimates for pharmacokinetic/ pharmacodynamic models of pS6 in tumor tissue using dose and area under the curve (AUCT, calculated as dose divided by apparent clearance at time of tissue biopsy) as exposure metrics
log-linear regression model of dose – tumor pS6: y ~ slope *log(Dose)
Emax regression model of AUC – tumor pS6: y ~ (Emax *AUC) / (EC50 + AUC)

[5] = in vivo
From the text: A monotherapy population PK model was developed, consisting of a two-compartment model with four absorption transit compartments and first-order elimination (Additional file 1: Table S5).

[6] = system: patients with advanced metastatic cancer; experiment: Association between PK and safety (electrocardiogram ∆QTcF, fasting glucose); format: in vivo, human
[7] = day 15, monotherapy 110 mg, n=3
[8] = day 15, monotherapy 160 mg, n=5
[9] = day 15, monotherapy 200 mg, n=3
[10] = day 15, monotherapy 240 mg, n=7
[11] = day 15, monotherapy 320 mg, n=6
[12] = day 15, monotherapy 380 mg, n=2
[13] = Fasted, single dose of 240 mg, n=8

## NC(=O)c1cccc2c(N[C@H](CN3CCC3)c3ccc(Cl)c(C(F)(F)F)c3)ncnc12 [M2698]
[1]; day 15, monotherapy 30 mg, n=3
  Cmax, GeoMean (GeoCV%): 279 (14.5) ng/mL
  tmax, median (range): 4.30 (1.93–6.02) hours
[1]; day 15, monotherapy 60 mg, n=5
  AUC0–τ, Geo mean (GeoCV%): 10,000 (47.7) ng∙h/mL
  Accumulation ratio (Cmax), Geo mean (GeoCV%): 3.03 (60.4)
  Cmax, GeoMean (GeoCV%): 566 (48.5) ng/mL
  tmax, median (range): 5.07 (3.03–7.62) hours
[1]; day 15, monotherapy 75 mg, n=4
  AUC0–τ, Geo mean (GeoCV%): 9440 (39.6) ng∙h/mL
  Accumulation ratio (Cmax), Geo mean (GeoCV%): 3.02 (3.2)
  Cmax, GeoMean (GeoCV%): 533 (47.5) ng/mL
  tmax, median (range): 4.05 (4.03–5.12) hours
[1]; [7]
  AUC0–τ, Geo mean (GeoCV%): 15,500 (46.8) ng∙h/mL
  Accumulation ratio (Cmax), Geo mean (GeoCV%): 3.38 (55.6)
  Cmax, GeoMean (GeoCV%): 831 (43.3) ng/mL
  tmax, median (range): 6.05 (3.00–6.07) hours
[1]; [8]
  AUC0–τ, Geo mean (GeoCV%): 23,700 (43.7) ng∙h/mL
  Accumulation ratio (Cmax), Geo mean (GeoCV%): 2.40 (36.8)
  Cmax, GeoMean (GeoCV%): 1300 (45.1) ng/mL
  tmax, median (range): 4.08 (1.93–6.00) hours
[1]; [9]
  AUC0–τ, Geo mean (GeoCV%): 28,400 (91.6) ng∙h/mL
  Accumulation ratio (Cmax), Geo mean (GeoCV%): 3.21 (63.5)
  Cmax, GeoMean (GeoCV%): 1520 (100.8) ng/mL
  tmax, median (range): 3.77 (3.50–4.05) hours
[1]; [10]
  AUC0–τ, Geo mean (GeoCV%): 31,300 (55.8) ng∙h/mL
  Accumulation ratio (Cmax), Geo mean (GeoCV%): 2.51 (77.8)
  Cmax, GeoMean (GeoCV%): 1920 (48.5) ng/mL
  tmax, median (range): 4.00 (2.95–6.10) hours
[1]; [11]
  AUC0–τ, Geo mean (GeoCV%): 39,700 (52.3) ng∙h/mL
  Accumulation ratio (Cmax), Geo mean (GeoCV%): 2.12 (67.9)
  Cmax, GeoMean (GeoCV%): 2110 (39.6) ng/mL
  tmax, median (range): 5.48 (3.57–6.08) hours
[1]; [12]
  AUC0–τ, Geo mean (GeoCV%): 41,400 (34.5) ng∙h/mL
  Accumulation ratio (Cmax), Geo mean (GeoCV%): 2.20 (97.9)
  Cmax, GeoMean (GeoCV%): 2490 (9.4) ng/mL
  tmax, median (range): 2.50 (2.00–3.00) hours
[1]; highest doses of 240–380 mg
  Area under the curve on day 15: > 30,000 ng h/mL
[1]; in vivo
  Pharmacokinetic profile combined with tamoxifen versus monotherapy: similar
[1]; monotherapy
  Accumulation on day 15 after repeated doses: 2.12–3.38 fold
  Apparent oral clearance (CL/f): ~ 6 L/h
  Terminal half-life: ~ 30 h
[1]; monotherapy, across doses
  Median time to maximum plasma concentration (tmax): 3.08 to 6.28 h
[1]; monotherapy, single and multiple administrations
  Dose proportionality of M2698 exposure: exposure increased proportionally with dose
[1]; versus monotherapy
  M2698 exposure in combination with trastuzumab: relatively higher
[2]; [13]
  AUC0-∞ (90% CI): 40016.18 (22818.47–70175.36) ng.h/mL
  Cmax (90% CI): 769.04 (410.14–1441.99) ng/mL
[2]; Fed, single dose of 240 mg, n=7
  AUC0-∞ (90% CI): 38626.33 (21989.80–67849.37) ng.h/mL
[2]; Fed, single dose of 240 mg, n=8
  Cmax (90% CI): 934.92 (498.61–1753.02) ng/mL
[2]; in vivo
  Food effect on the exposure of M2698: no apparent food effect
[2]; single dose of 240 mg, p=0.3917
  Cmax Fed/fasted ratio (90% CI): 1.2157 (0.8058–1.8341) p=0.3917
[2]; single dose of 240 mg, p=0.6504
  AUC0-∞ Fed/fasted ratio (90% CI): 0.9653 (0.8326–1.1191) p=0.6504
[3]; NONMEM estimate
  EC50, PK/PD model of pS6 in PBMCs (plasma concentration for 50% inhibition): 1643 ng/mL
  Emax, PK/PD model of pS6 in PBMCs: 0.148
[3]; in vivo
  Inhibition of pS6 levels in PBMCs: dose- and concentration-dependent inhibition
[4]; Emax model
  AUC giving 70% inhibition of pS6 in tumor tissue: 15,174 h.ng/mL
  AUC giving 80% inhibition of pS6 in tumor tissue: 32,087 h.ng/mL
[4]; log-linear regression model
  Dose giving 70% inhibition of pS6 in tumor tissue: ~ 160 mg
  Dose giving 80% inhibition of pS6 in tumor tissue: ~240 mg
[4]; paired biopsies, 28 patients
  Inhibition of pS6 levels in tumor tissue: dose- and concentration-dependent inhibition
[5]
  Additive RSV (residual variability), population PK estimate: 3.44
  Proportional RSV (residual variability), population PK estimate: 0.163
[6]; across all cohorts
  Changes in mean electrocardiogram data: no clinically relevant changes
[6]; in vivo
  Correlation between exposure and fasting glucose levels: no correlation
